Columns and labels:
Parameters in all cases: species or system female nu/nu mice
[1] = test system: NCI-H1437 xenograft tumors; assay: In vivo combination study (NCI-H1437 model), Example 2; conditions: MRTX1719 and ABT-263 100 mg/kg PO QD, A-1331852 25 mg/kg PO QD, alone or combined
Source text: (§1) Immunodeficient female nu/nu mice were implanted with 5×10^6 LU99 cancer cells in 50% Matrigel. Tumor volume measurements were collected using calipers and determined utilizing the formula 0.5×L×W^2 in which L refers to length and W refers to width of each tumor. When tumors reached approximately 125-150 mm^3, animals were randomized to receive A) vehicle, B) a PRMT5 inhibitor, C) navitoclax (ABT-263), D) venetoclax (ABT-199), E) A-1331852, F) the PRMT5 inhibitor and navitoclax, F) the PRMT5 inhibitor and venetoclax, or G) the PRMT5 inhibitor and A-1331852 all administered orally (PO) with the indicated dose and schedule for 20-34 days. Tumor volume was measured twice a week (n=5/treatment group). Average tumor volume and standard error of the mean was calculated and plotted at each study day using GraphPad Prism.
Example 2 was carried out using NCI-H1437 cell line derived xenografts according to the in vivo study procedure described above in Example 1.
(§2) The PRMT5 inhibitor was MRTX1719 administered at 100 mg/kg once a day (QD). MRTX1719 is (2M)-2-(4-(4-(aminomethyl)-1-oxo-1,2-dihydrophthalazin-6-yl)-1-methyl-1H-pyrazol-5-yl)-4-chloro-6-cyclopropoxy-3-fluorobenzonitrile, disclosed as Example 16-8 at p. 307 of the international patent publication No. WO 2021/050915 A1, published 18 Mar. 2021, incorporated by reference in its entirety. The BCL-2 family inhibitor, ABT-263 (navitoclax), was administered at 100 mg/kg once a day (QD) and supplied by Selleck Chemicals (Houston, TX). The BCL-2 family inhibitor A-1331852 was administered at 25 mg/kg once a day (QD) and synthesized at Wuxi AppTec (Wuhan, China).

LU99 xenograft tumors = assay: In vivo combination study (LU99 model), Example 1; conditions: MRTX1719, ABT-263, ABT-199 each 100 mg/kg PO QD, alone or combined
Source text: as §1
The PRMT5 inhibitor was MRTX1719 administered at 100 mg/kg once a day (QD). MRTX1719 is (2M)-2-(4-(4-(aminomethyl)-1-oxo-1,2-dihydrophthalazin-6-yl)-1-methyl-1H-pyrazol-5-yl)-4-chloro-6-cyclopropoxy-3-fluorobenzonitrile, disclosed as Example 16-8 at p. 307 of the international patent publication No. WO 2021/050915 A1, published 18 Mar. 2021, incorporated by reference in its entirety.
The BCL-2 family inhibitors used in this example, ABT-199 (venetoclax) and ABT-263 (navitoclax), were administered at 100 mg/kg once a day (QD) and supplied by Selleck Chemicals (Houston, TX).

[2] = test system: NCI-H1650 xenograft tumors; assay: In vivo combination study (NCI-H1650 model), Example 5; conditions: MRTX1719 and ABT-263 100 mg/kg PO QD, A-1331852 25 mg/kg PO BID, alone or combined
Source text: as §1
Example 5 was carried out using NCI-H1650 cell line derived xenografts according to the in vivo study procedure described above in Example 1.
The PRMT5 inhibitor was MRTX1719 administered at 100 mg/kg once a day (QD). MRTX1719 is (2M)-2-(4-(4-(aminomethyl)-1-oxo-1,2-dihydrophthalazin-6-yl)-1-methyl-1H-pyrazol-5-yl)-4-chloro-6-cyclopropoxy-3-fluorobenzonitrile, disclosed as Example 16-8 at p. 307 of the international patent publication No. WO 2021/050915 A1, published 18 Mar. 2021, incorporated by reference in its entirety. The BCL-2 family inhibitor, ABT-263 (navitoclax), was administered at 100 mg/kg once a day (QD) and supplied by Selleck Chemicals (Houston, TX). The BCL-2 family inhibitor A-1331852 was administered at 25 mg/kg twice a day (BID) and synthesized at Wuxi AppTec (Wuhan, China).

SW1573 xenograft tumors = assay: In vivo combination study (SW1573 model), Example 3; conditions: MRTX1719 and ABT-263 100 mg/kg PO QD, A-1331852 25 mg/kg PO QD, alone or combined
Source text: as §1
Example 3 was carried out in SW1573 cell line derived xenografts according to the in vivo study procedure described above in Example 1.
as §2

Row | SMILES | Average Tumor Volume ([1]; day 4) | Average Tumor Volume ([1]; day 7) | Average Tumor Volume ([1]; day 11) | Average Tumor Volume ([1]; day 14) | Average Tumor Volume ([1]; day 18) | Average Tumor Volume ([1]; day 21) | Average Tumor Volume ([1]; day 25) | Average Tumor Volume ([1]; day 28) | Average Tumor Volume ([1]; day 34) | Average Tumor Volume ([1]; day −1) | Average Tumor Volume ([2]; day 0) | Average Tumor Volume ([2]; day 5) | Average Tumor Volume ([2]; day 8) | Average Tumor Volume ([2]; day 13) | Average Tumor Volume ([2]; day 15) | Average Tumor Volume ([2]; day 19) | Average Tumor Volume ([2]; day 22) | Average Tumor Volume (SW1573 xenograft tumors; day 3) | Average Tumor Volume (SW1573 xenograft tumors; day 6) | Average Tumor Volume (SW1573 xenograft tumors; day 10) | other results
1 | Cn1ncc(-c2ccc3c(=O)[nH]nc(CN)c3c2)c1-c1c(F)c(Cl)cc(OC2CC2)c1C#N (atropisomer, axis not shown; (M)) [MRTX1719, (2M)-2-(4-(4-(aminomethyl)-1-oxo-1,2-dihydrophthalazin-6-yl)-1-methyl-1H-pyrazol-5-yl)-4-chloro-6-cyclopropoxy-3-fluorobenzonitrile] | 200 mm^3 | 244 mm^3 | 268 mm^3 | 288 mm^3 | 316 mm^3 | 322 mm^3 | 340 mm^3 | 362 mm^3 | 441 mm^3 | 139 mm^3 | 149 mm^3 | 246 mm^3 | 292 mm^3 | 344 mm^3 | 398 mm^3 | 469 mm^3 | 510 mm^3 | 172 mm^3 | 220 mm^3 | 229 mm^3 | Average Tumor Volume (LU99 xenograft tumors; day 3): 215 mm^3; Average Tumor Volume (LU99 xenograft tumors; day 6): 236 mm^3; Average Tumor Volume (LU99 xenograft tumors; day 10): 236 mm^3; Average Tumor Volume (LU99 xenograft tumors; day 13): 260 mm^3; Average Tumor Volume (LU99 xenograft tumors; day 17): 282 mm^3; Average Tumor Volume (LU99 xenograft tumors; day 20): 302 mm^3; Average Tumor Volume (LU99 xenograft tumors; day −1): 153 mm^3; Average Tumor Volume (SW1573 xenograft tumors; day 13): 242 mm^3; Average Tumor Volume (SW1573 xenograft tumors; day 17): 319 mm^3; Average Tumor Volume (SW1573 xenograft tumors; day 20): 387 mm^3; Average Tumor Volume (SW1573 xenograft tumors; day 26): 444 mm^3; Average Tumor Volume (SW1573 xenograft tumors; day −1): 126 mm^3
2 | CC1(C)CCC(c2ccc(Cl)cc2)=C(CN2CCN(c3ccc(C(=O)NS(=O)(=O)c4ccc(N[C@H](CCN5CCOCC5)CSc5ccccc5)c(S(=O)(=O)C(F)(F)F)c4)cc3)CC2)C1 [ABT-263, navitoclax] | 172 mm^3 | 192 mm^3 | 244 mm^3 | 269 mm^3 | 288 mm^3 | 299 mm^3 | 389 mm^3 | 420 mm^3 | 472 mm^3 | 138 mm^3 | 155 mm^3 | 186 mm^3 | 210 mm^3 | 302 mm^3 | 319 mm^3 | 339 mm^3 | 371 mm^3 | 265 mm^3 | 328 mm^3 | 395 mm^3 | Average Tumor Volume (LU99 xenograft tumors; day 3): 236 mm^3; Average Tumor Volume (LU99 xenograft tumors; day 6): 359 mm^3; Average Tumor Volume (LU99 xenograft tumors; day 10): 558 mm^3; Average Tumor Volume (LU99 xenograft tumors; day 13): 737 mm^3; Average Tumor Volume (LU99 xenograft tumors; day 17): 1042 mm^3; Average Tumor Volume (LU99 xenograft tumors; day 20): 1237 mm^3; Average Tumor Volume (LU99 xenograft tumors; day −1): 153 mm^3; Average Tumor Volume (SW1573 xenograft tumors; day 13): 536 mm^3; Average Tumor Volume (SW1573 xenograft tumors; day 17): 678 mm^3; Average Tumor Volume (SW1573 xenograft tumors; day 20): 809 mm^3; Average Tumor Volume (SW1573 xenograft tumors; day 26): 1133 mm^3; Average Tumor Volume (SW1573 xenograft tumors; day −1): 123 mm^3
3 | Cc1c(-c2ccc(N3CCc4cccc(C(=O)Nc5nc6ccccc6s5)c4C3)nc2C(=O)O)cnn1CC12CC3CC(CC(C3)C1)C2 [A-1331852] | 171 mm^3 | 191 mm^3 | 248 mm^3 | 300 mm^3 | 332 mm^3 | 376 mm^3 | 467 mm^3 | 564 mm^3 | 683 mm^3 | 139 mm^3 | 143 mm^3 | 163 mm^3 | 189 mm^3 | 255 mm^3 | 291 mm^3 | 347 mm^3 | 366 mm^3 | 209 mm^3 | 250 mm^3 | 271 mm^3 | Average Tumor Volume (SW1573 xenograft tumors; day 13): 305 mm^3; Average Tumor Volume (SW1573 xenograft tumors; day 17): 421 mm^3; Average Tumor Volume (SW1573 xenograft tumors; day 20): 456 mm^3; Average Tumor Volume (SW1573 xenograft tumors; day 26): 609 mm^3; Average Tumor Volume (SW1573 xenograft tumors; day −1): 125 mm^3
